Entries after “also recorded” stand apart in the source; their conditions may differ. Read-outs that look alike come from different tables or passages of the source.
Columns and labels:
CA09 [1] = test: High-throughput modified TCID50 viral titer of drug-screen supernatant on MDCK cells (area under the curve); assay type: cell-based, influenza virus H1N1 strain A/CA/04/2009; conditions: supernatant of CA09-infected NHBE cells titrated on MDCK cells
NHBE cells = test: cells; assay type: cell-based, human; conditions: for IC50: Homo sapiens, NHBE
CA09 [2] = test: microbe, parasite or virus in culture; assay type: cell-based, influenza virus H1N1 strain A/CA/04/2009; design: TCID50 (per mL): unit not given here; conditions: for log reduction at 10 pM / log reduction at 0.0001 µM / log reduction at 0.001 µM / log reduction at 0.01 µM / log reduction at 0.1 µM / log reduction at 1 µM / log reduction at 10 µM / log reduction at 100 µM: NHBE, read-out: TCID50 (per mL)
CA09 [3] = test: In vivo drug tests in CA09-infected mice: weight loss, survival, lung viral titer; design: species or system C57/B6 mice; conditions: mice infected intranasally with CA09; for weight loss: daily drug for 7 days from 2 days before infection (NVP-BEZ235 25 mg/kg oral gavage; clotrimazole 120 mg/kg ip; α-mangostin 8 mg/kg ip); for survival: daily drug for 7 days from 2 days before infection, monitored 15 days
BMDCs [4] = test: Isotopically labeled substrate utilization in bone marrow-derived dendritic cells; assay type: cell-based, mouse
BMDCs [5] = assay type: cell-based, mouse
[6] = follow up validation titer, therapeutic treatment
[7] = Therapeutic Drug Treatment, Drug Dose 10 pM, […]
[8] = Therapeutic Drug Treatment, Drug Dose 100 pM, […]
[9] = Therapeutic Drug Treatment, Drug Dose 1 nM, […]
[10] = Therapeutic Drug Treatment, Drug Dose 10 nM, […]
[11] = Therapeutic Drug Treatment, Drug Dose 100 nM, […]
[12] = Therapeutic Drug Treatment, Drug Dose 1 μM, […]
[13] = Therapeutic Drug Treatment, Drug Dose 10 μM, […]
[14] = Therapeutic Drug Treatment, Drug Dose 100 μM, […]
[15] = read-out: IC50, Prophylactic Treatment, Viral Infected
[16] = 72 h, read-out: IC50, Therapeutic Treatment, Control
[17] = 72 h, read-out: IC50, Prophylactic Treatment, Control

Row | Compound | log reduction at 10 pM (CA09 [2]) | log reduction at 0.0001 µM (CA09 [2]) | log reduction at 0.001 µM (CA09 [2]) | log reduction at 0.01 µM (CA09 [2]) | log reduction at 0.1 µM (CA09 [2]) | log reduction at 1 µM (CA09 [2]) | log reduction at 10 µM (CA09 [2]) | log reduction at 100 µM (CA09 [2]) | Cell Death Prophylactic (NHBE cells) | Cell Death Therapeutic (NHBE cells) | also measured
1 | O=CC[C@@H](O)[C@H](O)[C@H](O)CO [2-deoxyglucose] | 0.94 | 0.35 | 0.48 | 0.43 | 0.28 | 0.87 | 1.01 | 0.85 |  |  | viral titers in the high-throughput screening (CA09 [1]): reduced; NHBE cell survival / cell death after infection (NHBE cells): preferentially killed infected cells; viral titer following therapeutic treatment (CA09 [2]; FIG. 12B, NHBE supernatant titered on MDCK cells): efficient at reducing viral load; Viral Titer Therapeutic (CA09 [2]; [6]): Reduced
2 | [O]=[V]1(=[O])(=[O])(=[O])[n+]2cccc3ccc4ccc[n+]1c4c32 [BP/(PHEN)] |  |  |  |  |  |  |  |  | V > C |  | TCID50 (per mL) (CA09 [2]; [7]): −0.50; TCID50 (per mL) (CA09 [2]; [8]): −0.54; TCID50 (per mL) (CA09 [2]; [9]): −0.44; TCID50 (per mL) (CA09 [2]; [10]): −0.74; TCID50 (per mL) (CA09 [2]; [11]): −0.13; TCID50 (per mL) (CA09 [2]; [12]): −0.32; TCID50 (per mL) (CA09 [2]; [13]): −0.10; TCID50 (per mL) (CA09 [2]; [14]): −0.18
3 | O=C(Nc1cccc(Nc2ncc(Br)c(NCCc3cnc[nH]3)n2)c1)N1CCCC1 [BX-912] |  |  |  |  |  |  |  |  |  |  | viral titers in the high-throughput screening (CA09 [1]): reduced; Viral Titer Therapeutic (CA09 [2]; [6]): Reduced
4 | C=C(C)[C@@H]1CC[C@]2(C(=O)O)CC[C@]3(C)[C@H](CC[C@@H]4[C@@]5(C)CC[C@H](O)C(C)(C)[C@@H]5CC[C@]43C)[C@@H]12 [Betulinic Acid] | 0.37 | 0.63 | 0.51 | 0.55 | 0.31 | 0.96 | 0.61 | 0.59 |  |  | IC50 (NHBE cells; [15]): 2 µM
5 | Clc1ccccc1C(c1ccccc1)(c1ccccc1)n1ccnc1 [Clotrimazole] | 0.71 | 0.85 | 0.84 | 0.7 | 0.48 | 0.95 | 0.9 | 1.07 | C > V |  | NHBE cell survival / cell death after infection (NHBE cells): differentially affected; also recorded: differential effects; weight loss (CA09 [3]): little effect; survival (CA09 [3]): little effect; Viral Titer Prophylactic (CA09 [2]): Reduced; viral titers in NHBE cells (validated drug hits) (CA09 [2]): consistently reduced; also recorded: consistent reduction
6 | CCc1c(-c2ccccc2)c(-c2ccccc2)nn1-c1ccccc1-c1cccc(OCC(=O)O)c1 [FABP4 Inhibitor] |  |  |  |  |  |  |  |  | V > C |  | IC50 (NHBE cells; [16]): 4 µM; Viral Titer Prophylactic (CA09 [2]): Reduced
7 | O=C1Nc2ccc3ncsc3c2/C1=C/c1cnc[nH]1 [Imidazolo-oxindole C 16] |  |  |  |  |  |  |  |  |  | V > C | viral titers in the high-throughput screening (CA09 [1]): reduced
8 | NC(=O)N1CCC(CC(=O)N2CCC([C@H]3c4ncc(Br)cc4CCc4cc(Cl)cc(Br)c43)CC2)CC1 [Lonafarnib] | 0.04 | 0.15 | 0.56 | -0.06 | 0.3 | 1.16 | 0.28 | 1.25 | C > V |  | IC50 (NHBE cells; [17]): 1.9 µM; IC50 (NHBE cells; [15]): 1.3 µM
9 | Nc1cc(C(F)(F)F)c(-c2cc(N3CCOCC3)nc(N3CCOCC3)n2)cn1 [NVP-BKM120] | 0 | 0.4 | 0.76 | 0 | 0.29 | -0.08 | 0.07 | -0.37 | C = V | C = V | NHBE cell survival / cell death after infection (NHBE cells): no effect
10 | CC[C@@H]1/C=C/C=C/C[C@H](C)[C@@H](O)[C@](C)(O)C(=O)[C@H](C)[C@@H](O)[C@H](C)C(=O)[C@H](C)[C@@H](O)[C@H](C)/C=C/C(=O)O[C@H]2[C@@H](C)[C@@H](CC1)O[C@@]1(CC[C@@H](C)C(CC(C)O)O1)[C@@H]2C (some centres unmarked) [Oligomycin A] | 0.92 | 0.23 | 0.51 | 0.6 | 0.38 | 0.77 | 0.66 | 0.28 | C > V | C > V | Viral Titer Therapeutic (CA09 [2]): Reduced
11 | CCc1ccc(CCOc2ccc(CC3SC(=O)NC3=O)cc2)nc1 (centres unmarked) [Pioglitazone] | 0.22 | 0.8 | 0.66 | 0.47 | -0.1 | 0.49 | 0.73 | 0.23 | C > V |  | 
12 | C=C(C)[C@H]1Cc2c(ccc3c2O[C@@H]2COc4cc(OC)c(OC)cc4[C@@H]2C3=O)O1 [Rotenone] |  |  |  |  |  |  |  |  | C > V | C > V | log reduction at 10 pM (CA09 [2]; [7]): 0.09; log reduction at 0.0001 µM (CA09 [2]; [8]): 0.15; log reduction at 0.001 µM (CA09 [2]; [9]): 0.9; log reduction at 0.01 µM (CA09 [2]; [10]): 0.04; log reduction at 0.1 µM (CA09 [2]; [11]): 0.07; log reduction at 1 µM (CA09 [2]; [12]): 0.5; log reduction at 10 µM (CA09 [2]; [13]): 1.14; log reduction at 100 µM (CA09 [2]; [14]): -0.05
13 | Cn1cncc1[C@@](N)(c1ccc(Cl)cc1)c1ccc2c(c1)c(-c1cccc(Cl)c1)cc(=O)n2C [Tipifarnib] | 0.02 | 0.73 | 1.04 | 0.6 | -0.16 | 1.04 | 1.4 | 0 |  |  | IC50 (NHBE cells; [17]): 0.012 µM; IC50 (NHBE cells; [16]): 0.013 µM; IC50 (NHBE cells; read-out: IC50, Therapeutic Treatment, Viral Infected): 0.033 µM
14 | COc1c(O)cc2oc3cc(O)c(CC=C(C)C)c(O)c3c(=O)c2c1CC=C(C)C [α-Mangostin] |  |  |  |  |  |  |  |  | C > V | C > V | NHBE cell survival / cell death after infection (NHBE cells): differential effects; NHBE cell survival / cell death after infection (NHBE cells; listed as α-mangostin): differentially affected; weight loss (CA09 [3]): little effect; survival (CA09 [3]): little effect; viral titers in NHBE cells (validated drug hits) (CA09 [2]): consistent reduction; log reduction at 10 pM (CA09 [2]; Prophylactic Drug Treatment, Drug Dose 10 pM, […]): 0.74; log reduction at 0.0001 µM (CA09 [2]; Prophylactic Drug Treatment, Drug Dose 100 pM, […]): 0.69; log reduction at 0.001 µM (CA09 [2]; Prophylactic Drug Treatment, Drug Dose 1 nM, […]): 0.54; log reduction at 0.01 µM (CA09 [2]; Prophylactic Drug Treatment, Drug Dose 10 nM, […]): 0.65; log reduction at 0.1 µM (CA09 [2]; Prophylactic Drug Treatment, Drug Dose 100 nM, […]): 0.84; log reduction at 1 µM (CA09 [2]; Prophylactic Drug Treatment, Drug Dose 1 μM, […]): 0.71; log reduction at 10 µM (CA09 [2]; Prophylactic Drug Treatment, Drug Dose 10 μM, […]): 1.2; log reduction at 100 µM (CA09 [2]; Prophylactic Drug Treatment, Drug Dose 100 μM, […]): 0.85; Viral Titer Prophylactic (CA09 [2]; […], prophylactic treatment): Reduced; viral titers in NHBE cells (validated drug hits) (CA09 [2]; listed as α-mangostin): consistently reduced
15 | lipopolysaccharide [LPS] |  |  |  |  |  |  |  |  |  |  | glycolysis (radiolabeled metabolic substrate assay) (BMDCs [4]): slight increase; other substrate use measures (radiolabeled metabolic substrate assays) (BMDCs [4]): little effect
16 | polyinosinic polycytidylic acid [PolylC] |  |  |  |  |  |  |  |  |  |  | all metabolites measured in flux assays (BMDCs [5]): extreme drops
